These are literature values, as cited in patent US6630467B2, “Pyridone-fused azabicyclic- or cytisine derivatives, their preparation and their use in addiction therapy” (Pfizer Inc., priority 1996, dated 2003).

Molecules are shown by their SMILES.

The conditions of the data set: in vivo.

As for `O=c1cccc2n1CC1CNCC2C1` (centres unmarked) [cytisine, 1,2,3,4,5,6-hexahydro-1,5-methano-pyrido[1,2-a][1,5]diazocin-8-one], the “penetration of the brain barrier” value was “inability to penetrate the brain barrier” and the potency result is on record as “not high”.
